PMC9954146, “Anti-Leukaemic Activity of Rilpivirine Is Mediated by Aurora A Kinase Inhibition” (Cancers, 2023)

Assays:
Assay in all cases: Kinase panel
Format in all cases: biochemical
Details in all cases: read-out: % Residual Activity
MKK3(h) = target: T1, MKK3(h) (Homo sapiens, UniProt P46734)
T1 construct: purchased Eurofins (KinaseProfiler)
In short: (§1)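 Cheng–Prusoff conversion of IC50 to Ki; IC50s from radioisotope-based assays at Km(ATP). Kinome-wide rilpivirine profiling.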

Tie2 (h) = target: T2, Tie2 (h) (Homo sapiens, UniProt Q02763)
T2 construct: purchased Eurofins (KinaseProfiler)
In short: as §1

PDGFRα(V561D)(h) = target: T3, PDGFRα(V561D)(h) (Homo sapiens, UniProt P16234, V561D)
T3 construct: purchased Eurofins (KinaseProfiler)
In short: as §1

Rsk1(r) = target: T4, Rsk1(r) (Rattus norvegicus, UniProt Q63531)
T4 construct: purchased Eurofins (KinaseProfiler)
In short: as §1

Syk(h) = target: T5, Syk(h) (Homo sapiens, UniProt P43405)
T5 construct: purchased Eurofins (KinaseProfiler)
In short: as §1

TYK2(h) = target: T6, TYK2(h) (Homo sapiens, UniProt P29597)
T6 construct: purchased Eurofins (KinaseProfiler)
In short: as §1

MAPKAP-K3(h) = target: T7, MAPKAP-K3(h) (Homo sapiens, UniProt Q16644)
T7 construct: purchased Eurofins (KinaseProfiler)
In short: as §1

PhKγ2(h) = target: T8, PhKγ2(h) (Homo sapiens, UniProt P15735)
T8 construct: purchased Eurofins (KinaseProfiler)
In short: as §1

TRB2(h) = target: T9, TRB2(h) (Homo sapiens, UniProt Q92519)
T9 construct: purchased Eurofins (KinaseProfiler)
In short: as §1

CHK1(h) = target: T10, CHK1(h) (Homo sapiens, UniProt O14757)
T10 construct: purchased Eurofins (KinaseProfiler)
In short: as §1

PKCγ(h) = target: T11, PKCγ(h) (Homo sapiens, UniProt P05129)
T11 construct: purchased Eurofins (KinaseProfiler)
In short: as §1

GCK(h) = target: T12, GCK(h) (Homo sapiens, UniProt Q12851)
T12 construct: purchased Eurofins (KinaseProfiler)
In short: as §1

[1] = target: PI3 Kinase (p110a(E542K)/p85a)(m) (Mus musculus, UniProt P42337, E542K)
In short: as §1

PKCα(h) = target: T13, PKCα(h) (Homo sapiens, UniProt P17252)
T13 construct: purchased Eurofins (KinaseProfiler)
In short: as §1

Fms(Y969C)(h) = target: T14, Fms(Y969C)(h) (Homo sapiens, UniProt P07333, Y969C)
T14 construct: purchased Eurofins (KinaseProfiler)
In short: as §1

[2] = target: PI3 Kinase (p110d/p85a)(m) (Mus musculus, UniProt O35904)
In short: as §1

FAK(h) = target: T15, FAK(h) (Homo sapiens, UniProt Q05397)
T15 construct: purchased Eurofins (KinaseProfiler)
In short: as §1

JNK3(h) = target: T16, JNK3(h) (Homo sapiens, UniProt P53779)
T16 construct: purchased Eurofins (KinaseProfiler)
In short: as §1

HIPK4(h) = target: T17, HIPK4(h) (Homo sapiens, UniProt Q8NE63)
T17 construct: purchased Eurofins (KinaseProfiler)
In short: as §1

Abl (Q252H) (h) = target: T18, Abl (Q252H) (h) (Homo sapiens, UniProt P00519, Q252H)
T18 construct: purchased Eurofins (KinaseProfiler)
In short: as §1

IKKα(h) = target: T19, IKKα(h) (Homo sapiens, UniProt O15111)
T19 construct: purchased Eurofins (KinaseProfiler)
In short: as §1

CHK2(R145W)(h) = target: T20, CHK2(R145W)(h) (Homo sapiens, UniProt O96017, R145W)
T20 construct: purchased Eurofins (KinaseProfiler)
In short: as §1

MLK1(h) = target: T21, MLK1(h) (Homo sapiens, UniProt P80192)
T21 construct: purchased Eurofins (KinaseProfiler)
In short: as §1

CK2α1(h) = target: T22, CK2α1(h) (Homo sapiens, UniProt P68400)
T22 construct: purchased Eurofins (KinaseProfiler)
In short: as §1

CDK1/cyclinB(h) = target: T23, CDK1/cyclinB(h) (Homo sapiens, UniProt P06493)
T23 construct: purchased Eurofins (KinaseProfiler)
In short: as §1

PKBγ(h) = target: T24, PKBγ(h) (Homo sapiens, UniProt Q9Y243)
T24 construct: purchased Eurofins (KinaseProfiler)
In short: as §1

NDR1(h) = target: T25, NDR1(h) (Homo sapiens, UniProt Q15208)
T25 construct: purchased Eurofins (KinaseProfiler)
In short: as §1

LRRK2(h) = target: T26, LRRK2(h) (Homo sapiens, UniProt Q5S007)
T26 construct: purchased Eurofins (KinaseProfiler)
In short: as §1

MSK2(h) = target: T27, MSK2(h) (Homo sapiens, UniProt O75676)
T27 construct: purchased Eurofins (KinaseProfiler)
In short: as §1

eEF-2K(h) = target: T28, eEF-2K(h) (Homo sapiens, UniProt O00418)
T28 construct: purchased Eurofins (KinaseProfiler)
In short: as §1

CDK2/cyclinE(h) = target: T29, CDK2/cyclinE(h) (Homo sapiens, UniProt P24941)
T29 construct: purchased Eurofins (KinaseProfiler)
In short: as §1

[3] = target: PI3 Kinase (p110a(E542K)/p85a)(h) (Homo sapiens, UniProt P42336, E542K)
In short: as §1

Pim-2(h) = target: T30, Pim-2(h) (Homo sapiens, UniProt Q9P1W9)
T30 construct: purchased Eurofins (KinaseProfiler)
In short: as §1

cKit(D816H)(h) = target: T31, cKit(D816H)(h) (Homo sapiens, UniProt P10721, D816H)
T31 construct: purchased Eurofins (KinaseProfiler)
In short: as §1

SRMS(h) = target: T32, SRMS(h) (Homo sapiens, UniProt Q9H3Y6)
T32 construct: purchased Eurofins (KinaseProfiler)
In short: as §1

MSK1(h) = target: T33, MSK1(h) (Homo sapiens, UniProt O75582)
T33 construct: purchased Eurofins (KinaseProfiler)
In short: as §1

IRR(h) = target: T34, IRR(h) (Homo sapiens, UniProt P14616)
T34 construct: purchased Eurofins (KinaseProfiler)
In short: as §1

SAPK3(h) = target: T35, SAPK3(h) (Homo sapiens, UniProt P53778)
T35 construct: purchased Eurofins (KinaseProfiler)
In short: as §1

Chain of PI3 Kinase (p110d/p85a)(m) (O35904 whole entry): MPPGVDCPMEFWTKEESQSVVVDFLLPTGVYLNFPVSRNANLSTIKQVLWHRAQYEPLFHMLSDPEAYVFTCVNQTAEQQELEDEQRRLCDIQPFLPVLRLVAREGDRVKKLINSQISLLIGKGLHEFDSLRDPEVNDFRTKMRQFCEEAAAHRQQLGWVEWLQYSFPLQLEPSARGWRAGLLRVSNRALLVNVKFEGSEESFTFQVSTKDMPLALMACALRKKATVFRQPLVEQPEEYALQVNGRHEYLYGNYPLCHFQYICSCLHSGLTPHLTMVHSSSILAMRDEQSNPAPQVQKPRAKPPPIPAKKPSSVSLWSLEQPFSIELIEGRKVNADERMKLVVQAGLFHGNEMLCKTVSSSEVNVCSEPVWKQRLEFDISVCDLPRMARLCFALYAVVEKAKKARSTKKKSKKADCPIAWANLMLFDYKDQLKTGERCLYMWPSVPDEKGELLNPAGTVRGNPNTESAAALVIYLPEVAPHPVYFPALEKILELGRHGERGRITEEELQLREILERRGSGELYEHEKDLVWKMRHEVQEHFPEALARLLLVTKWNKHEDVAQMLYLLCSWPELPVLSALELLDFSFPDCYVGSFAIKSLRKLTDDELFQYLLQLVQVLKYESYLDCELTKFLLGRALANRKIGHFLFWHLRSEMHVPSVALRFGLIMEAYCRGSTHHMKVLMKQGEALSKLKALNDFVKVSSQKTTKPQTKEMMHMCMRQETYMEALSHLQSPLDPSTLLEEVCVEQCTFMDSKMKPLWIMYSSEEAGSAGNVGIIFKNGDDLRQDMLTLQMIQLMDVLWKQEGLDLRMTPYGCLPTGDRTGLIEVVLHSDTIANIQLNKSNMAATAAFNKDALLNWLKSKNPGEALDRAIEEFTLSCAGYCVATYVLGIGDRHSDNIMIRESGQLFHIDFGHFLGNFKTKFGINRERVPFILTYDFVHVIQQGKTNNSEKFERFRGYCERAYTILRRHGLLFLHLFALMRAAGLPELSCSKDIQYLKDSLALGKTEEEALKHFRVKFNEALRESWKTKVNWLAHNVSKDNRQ
Chain of PI3 Kinase (p110d/p85a)(m) (P26450 whole entry partner): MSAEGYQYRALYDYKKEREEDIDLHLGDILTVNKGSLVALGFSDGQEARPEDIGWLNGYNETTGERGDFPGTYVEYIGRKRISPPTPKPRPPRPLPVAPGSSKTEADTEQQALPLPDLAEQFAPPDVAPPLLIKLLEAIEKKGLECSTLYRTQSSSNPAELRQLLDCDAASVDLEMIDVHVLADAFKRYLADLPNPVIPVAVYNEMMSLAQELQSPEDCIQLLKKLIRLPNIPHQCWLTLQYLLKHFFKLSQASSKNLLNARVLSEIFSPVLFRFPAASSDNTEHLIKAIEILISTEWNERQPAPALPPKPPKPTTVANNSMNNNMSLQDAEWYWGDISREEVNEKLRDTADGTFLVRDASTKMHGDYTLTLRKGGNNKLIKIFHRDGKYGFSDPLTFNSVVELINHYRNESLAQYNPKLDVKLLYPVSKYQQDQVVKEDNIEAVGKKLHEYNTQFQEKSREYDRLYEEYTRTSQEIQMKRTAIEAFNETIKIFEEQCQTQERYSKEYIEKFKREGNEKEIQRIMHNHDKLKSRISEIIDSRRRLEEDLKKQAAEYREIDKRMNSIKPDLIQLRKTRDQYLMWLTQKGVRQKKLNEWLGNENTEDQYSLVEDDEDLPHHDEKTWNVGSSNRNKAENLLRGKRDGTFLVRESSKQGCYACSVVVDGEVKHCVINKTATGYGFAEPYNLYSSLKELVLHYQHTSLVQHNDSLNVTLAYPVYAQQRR
T14 sequence (P07333 20-972 Y969C): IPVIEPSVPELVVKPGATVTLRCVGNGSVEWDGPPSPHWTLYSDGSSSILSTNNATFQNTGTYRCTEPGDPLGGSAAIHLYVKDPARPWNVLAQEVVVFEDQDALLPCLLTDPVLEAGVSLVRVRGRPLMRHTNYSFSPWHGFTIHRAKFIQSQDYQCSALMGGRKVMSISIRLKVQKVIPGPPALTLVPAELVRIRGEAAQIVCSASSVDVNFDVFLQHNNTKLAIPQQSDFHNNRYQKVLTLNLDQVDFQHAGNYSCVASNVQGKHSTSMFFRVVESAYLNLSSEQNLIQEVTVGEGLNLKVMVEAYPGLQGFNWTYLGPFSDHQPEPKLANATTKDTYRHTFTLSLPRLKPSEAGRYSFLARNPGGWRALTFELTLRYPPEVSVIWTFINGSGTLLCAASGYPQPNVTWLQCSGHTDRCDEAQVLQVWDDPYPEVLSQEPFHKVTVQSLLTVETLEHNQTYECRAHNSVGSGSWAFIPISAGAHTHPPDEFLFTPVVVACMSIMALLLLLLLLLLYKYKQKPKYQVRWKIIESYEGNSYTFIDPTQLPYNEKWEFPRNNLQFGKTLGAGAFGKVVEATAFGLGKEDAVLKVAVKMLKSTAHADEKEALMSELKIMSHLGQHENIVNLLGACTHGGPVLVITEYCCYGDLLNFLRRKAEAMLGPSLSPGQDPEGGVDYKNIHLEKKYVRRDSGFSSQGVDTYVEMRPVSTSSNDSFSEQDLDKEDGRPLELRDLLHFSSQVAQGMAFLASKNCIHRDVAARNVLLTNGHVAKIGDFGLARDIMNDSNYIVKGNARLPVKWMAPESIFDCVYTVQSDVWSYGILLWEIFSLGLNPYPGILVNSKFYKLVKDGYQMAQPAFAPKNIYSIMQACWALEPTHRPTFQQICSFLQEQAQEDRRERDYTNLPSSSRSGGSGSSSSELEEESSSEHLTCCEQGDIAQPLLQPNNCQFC
T3 sequence (P16234 24-1089 V561D): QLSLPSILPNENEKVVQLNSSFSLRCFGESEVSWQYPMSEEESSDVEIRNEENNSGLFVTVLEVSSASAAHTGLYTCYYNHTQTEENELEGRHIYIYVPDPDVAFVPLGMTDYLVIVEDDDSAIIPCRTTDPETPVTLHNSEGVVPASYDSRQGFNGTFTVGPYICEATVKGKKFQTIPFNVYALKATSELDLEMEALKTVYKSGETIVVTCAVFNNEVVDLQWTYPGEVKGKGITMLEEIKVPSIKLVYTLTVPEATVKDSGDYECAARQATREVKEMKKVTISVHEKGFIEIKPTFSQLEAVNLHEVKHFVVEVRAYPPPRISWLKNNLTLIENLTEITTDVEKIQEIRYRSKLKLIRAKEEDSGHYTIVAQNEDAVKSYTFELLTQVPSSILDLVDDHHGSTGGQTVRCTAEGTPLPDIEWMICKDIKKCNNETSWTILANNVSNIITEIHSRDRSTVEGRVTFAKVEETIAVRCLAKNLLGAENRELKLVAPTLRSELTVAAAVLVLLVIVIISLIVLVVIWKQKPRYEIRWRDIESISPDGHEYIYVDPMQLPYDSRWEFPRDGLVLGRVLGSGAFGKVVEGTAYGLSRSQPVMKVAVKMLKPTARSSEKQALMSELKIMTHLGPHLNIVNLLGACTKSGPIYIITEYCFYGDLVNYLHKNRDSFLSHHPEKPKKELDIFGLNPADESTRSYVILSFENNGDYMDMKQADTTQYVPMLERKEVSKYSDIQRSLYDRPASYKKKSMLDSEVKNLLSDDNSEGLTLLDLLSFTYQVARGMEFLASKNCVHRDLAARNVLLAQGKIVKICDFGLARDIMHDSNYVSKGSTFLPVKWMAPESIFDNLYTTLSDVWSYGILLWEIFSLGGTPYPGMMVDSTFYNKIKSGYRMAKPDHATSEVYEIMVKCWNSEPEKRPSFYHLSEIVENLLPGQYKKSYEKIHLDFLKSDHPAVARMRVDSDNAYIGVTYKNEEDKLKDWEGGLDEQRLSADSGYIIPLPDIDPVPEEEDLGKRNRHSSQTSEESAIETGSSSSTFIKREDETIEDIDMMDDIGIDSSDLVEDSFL
T16 sequence (P53779 whole entry): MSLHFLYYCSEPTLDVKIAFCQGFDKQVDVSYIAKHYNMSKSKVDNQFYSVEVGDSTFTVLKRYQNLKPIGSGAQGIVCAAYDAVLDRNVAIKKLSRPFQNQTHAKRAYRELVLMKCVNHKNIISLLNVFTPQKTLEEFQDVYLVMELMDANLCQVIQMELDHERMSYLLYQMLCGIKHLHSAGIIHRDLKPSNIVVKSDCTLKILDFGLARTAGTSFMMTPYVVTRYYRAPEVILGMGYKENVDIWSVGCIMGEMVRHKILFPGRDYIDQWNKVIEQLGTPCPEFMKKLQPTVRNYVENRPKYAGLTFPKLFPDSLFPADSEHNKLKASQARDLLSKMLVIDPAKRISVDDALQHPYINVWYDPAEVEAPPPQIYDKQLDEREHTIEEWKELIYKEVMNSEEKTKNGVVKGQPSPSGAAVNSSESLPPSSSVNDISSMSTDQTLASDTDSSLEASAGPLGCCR

Cc1cc(/C=C/C#N)cc(C)c1Nc1ccnc(Nc2ccc(C#N)cc2)n1 [rilpivirine, (E)-4-((4-((4-(2-cyanoethenyl)-2,6-dimethylphenyl)amino)pyrimidin-2-yl)amino)benzonitrile]
remaining activity at 1 µM (MKK3(h)): 111%
remaining activity at 1 µM (Tie2 (h)): 93%
remaining activity at 1 µM (PDGFRα(V561D)(h)): 86%
remaining activity at 1 µM (Rsk1(r)): 90%
remaining activity at 1 µM (Syk(h)): 79%
remaining activity at 1 µM (TYK2(h)): 52%
remaining activity at 1 µM (MAPKAP-K3(h)): 90%
remaining activity at 1 µM (PhKγ2(h)): 83%
remaining activity at 1 µM (TRB2(h)): 65%
remaining activity at 1 µM (CHK1(h)): 100%
remaining activity at 1 µM (PKCγ(h)): 103%
remaining activity at 1 µM (GCK(h)): 99%
remaining activity at 1 µM [1]: 101%
remaining activity at 1 µM (PKCα(h)): 83%
remaining activity at 1 µM (Fms(Y969C)(h)): 83%
remaining activity at 1 µM [2]: 99%
remaining activity at 1 µM (FAK(h)): 86%
remaining activity at 1 µM (JNK3(h)): 100%
remaining activity at 1 µM (HIPK4(h)): 87%
remaining activity at 1 µM (Abl (Q252H) (h)): 94%
remaining activity at 1 µM (IKKα(h)): 85%
remaining activity at 1 µM (CHK2(R145W)(h)): 76%
remaining activity at 1 µM (MLK1(h)): 81%
remaining activity at 1 µM (CK2α1(h)): 101%
remaining activity at 1 µM (CDK1/cyclinB(h)): 105%
remaining activity at 1 µM (PKBγ(h)): 86%
remaining activity at 1 µM (NDR1(h)): 89%
remaining activity at 1 µM (LRRK2(h)): 93%
remaining activity at 1 µM (MSK2(h)): 105%
remaining activity at 1 µM (eEF-2K(h)): 92%
remaining activity at 1 µM (CDK2/cyclinE(h)): 92%
remaining activity at 1 µM [3]: 97%
remaining activity at 1 µM (Pim-2(h)): 56%
remaining activity at 1 µM (cKit(D816H)(h)): 89%
remaining activity at 1 µM (SRMS(h)): 55%
remaining activity at 1 µM (MSK1(h)): 97%
remaining activity at 1 µM (IRR(h)): 95%
remaining activity at 1 µM (SAPK3(h)): 106%
